According to patent US10519211B2, “Compounds as peptidic GLP1/glucagon/GIP receptor agonists” (SANOFI, priority 2016, dated 2019):
Numbered stars: 1 amine (or outer) side, 2 acyl side, 3 side chain; on linkers, the order of the positions; unused ones are H or OH. Square brackets hold non-standard residues; d marks the D form. Side chains are listed from the residue outwards. Peptide text beside a SMILES is read from it. * marks the point of attachment. Adipoyl(4R-palmitoylamino) = CCCCCCCCCCCCCCCC(=O)N[C@H](CCC(=O)*)CC(=O)O; γGlu = O=C(O)[C@H](CCC(=O)[*:2])N[*:1]; Palmitoyl = CCCCCCCCCCCCCCCC(=O)*; AEEA = NCCOCCOCC(=O)O; Aib = CC(C)(N)C(=O)O

Experiment: Thioflavin T (ThT) assay for physical stability (fibrillation)
Format: physicochemical
Conditions: 3 mg/ml, 100 mM acetate pH 4.5 with m-cresol, shaking at 37° C.
Description: Investigations were carried out to determine fibrillation tendencies under stress conditions by shaking at 37° C. within Fluoroskan Ascent FL.
For the tests in Fluoroskan Ascent FL, 200 μL sample were placed into a 96 well mictrotiter plate PS, flat bottom, Greiner Fluotrac No. 655076. Plates were sealed with Scotch Tape (Quiagen). Samples were stressed by continuous cycles of 10 s shaking at 960 rpm and 50 s rest period at 37° C. The kinetic was monitored by measuring fluorescence intensity every 20 minutes.
Peptides were diluted in a buffer system to a final concentration of 3 mg/ml. 20 μL of a 10.1 mM ThT solution in H2O were added to 2 mL of peptide solution to receive a final concentration of 100 μM ThT. For each sample eight replicates were tested.
Tht buffer system A) 100 mM Acetate pH 4.5 including m-cresol (100 mM Natriumacetat trihydrat, pH adjustment using 2N CH3COOH, 2.7 mg/mL m-cresol) Tht buffer system B) 100 mM citrate buffer pH 6.0
Lag time in hours in Thioflavin T (ThT) assay of peptide samples was determined in Tht buffer system A as described in Methods.

Structure (SMILES) | Lag time before increase
CCCCCCCCCCCCCCCC(=O)NCCOCCOCC(=O)N[C@@H](CCC(=O)N[C@@H](CCC(=O)NCCCC[C@H](NC(=O)[C@H](CC(C)C)NC(=O)[C@H](CCCCN)NC(=O)[C@H](CO)NC(=O)[C@H](CC(C)C)NC(=O)[C@H](CC(=O)O)NC(=O)[C@H](CO)NC(=O)[C@@H](NC(=O)[C@H](Cc1ccccc1)NC(=O)[C@@H](NC(=O)CNC(=O)[C@H](CCC(N)=O)NC(=O)C(C)(C)NC(=O)[C@@H](N)Cc1c[nH]cn1)[C@@H](C)O)[C@@H](C)O)C(=O)N[C@@H](CCC(=O)O)C(=O)N[C@@H](CCCCN)C(=O)N[C@@H](CCC(N)=O)C(=O)N[C@@H](CCCNC(=N)N)C(=O)N[C@@H](CCC(N)=O)C(=O)NC(C)(C)C(=O)N[C@@H](CCC(=O)O)C(=O)N[C@@H](Cc1ccccc1)C(=O)N[C@H](C(=O)N[C@@H](CCC(=O)O)C(=O)N[C@@H](Cc1c[nH]c2ccccc12)C(=O)N[C@@H](CC(C)C)C(=O)N[C@@H](CCCCN)C(=O)N[C@@H](C)C(=O)NCC(=O)NCC(=O)N[C@@H](Cc1c[nH]cn1)C(=O)N1CCC[C@H]1C(=O)N[C@@H](CO)C(=O)NC(C)(C)C(=O)N[C@@H](CCCCN)C(=O)N1CCC[C@H]1C(=O)N1CCC[C@H]1C(=O)N1CCC[C@H]1C(=O)N[C@@H](CCCCN)C(N)=O)[C@@H](C)CC)C(=O)O)C(=O)O [SEQ ID NO: 16, H-Aib-Q-G-T-F-T-S-D-L-S-K-L-K[gGlu-gGlu-AEEA-Palm]-E-K-Q-R-Q-Aib-E-F-I-E-W-L-K-A-G-G-H-P-S-Aib-K-P-P-P-K-NH2] (H-H[Aib]QGTFTSDLSKLK([γGlu-γGlu-AEEA-Palmitoyl])EKQRQ[Aib]EFIEWLKAGGHPS[Aib]KPPPK-NH2) | >45 h
CCCCCCCCCCCCCCCC(=O)N[C@H](CCC(=O)NCCOCCOCC(=O)N[C@@H](CCC(=O)NCCCC[C@H](NC(=O)[C@H](CC(C)C)NC(=O)[C@H](CCCCN)NC(=O)[C@H](CO)NC(=O)[C@H](CC(C)C)NC(=O)[C@H](CC(=O)O)NC(=O)[C@H](CO)NC(=O)[C@@H](NC(=O)[C@H](Cc1ccccc1)NC(=O)[C@@H](NC(=O)CNC(=O)[C@H](CCC(N)=O)NC(=O)C(C)(C)NC(=O)[C@@H](N)Cc1c[nH]cn1)[C@@H](C)O)[C@@H](C)O)C(=O)N[C@@H](CCC(=O)O)C(=O)N[C@@H](CCCCN)C(=O)N[C@@H](CCC(N)=O)C(=O)N[C@@H](CCCNC(=N)N)C(=O)N[C@@H](CCC(N)=O)C(=O)NC(C)(C)C(=O)N[C@@H](CCC(=O)O)C(=O)N[C@@H](Cc1ccccc1)C(=O)N[C@H](C(=O)N[C@@H](CCC(=O)O)C(=O)N[C@@H](Cc1c[nH]c2ccccc12)C(=O)N[C@@H](CC(C)C)C(=O)N[C@@H](CCCCN)C(=O)N[C@@H](C)C(=O)N[C@H](C)C(=O)NCC(=O)N[C@@H](Cc1c[nH]cn1)C(=O)N1CCC[C@H]1C(=O)N[C@@H](CO)C(=O)NC(C)(C)C(=O)N[C@@H](CCCCN)C(=O)N1CCC[C@H]1C(=O)N1CCC[C@H]1C(=O)N1CCC[C@H]1C(=O)N[C@@H](CCCCN)C(N)=O)[C@@H](C)CC)C(=O)O)CC(=O)O [SEQ ID NO: 21, H-Aib-Q-G-T-F-T-S-D-L-S-K-L-K[gGlu-AEEA-gAAA-Palm]-E-K-Q-R-Q-Aib-E-F-I-E-W-L-K-A-dAla-G-H-P-S-Aib-K-P-P-P-K-NH2] (H-H[Aib]QGTFTSDLSKLK([γGlu-AEEA-Adipoyl(4R-palmitoylamino)])EKQRQ[Aib]EFIEWLKA[dA]GHPS[Aib]KPPPK-NH2) | >45 h
CCCCCCCCCCCCCCCC(=O)N[C@H](CCC(=O)NCCOCCOCC(=O)N[C@@H](CCC(=O)NCCCC[C@H](NC(=O)[C@H](CC(C)C)NC(=O)[C@H](CCCCN)NC(=O)[C@H](CO)NC(=O)[C@H](CC(C)C)NC(=O)[C@H](CC(=O)O)NC(=O)[C@H](CO)NC(=O)[C@@H](NC(=O)[C@H](Cc1ccccc1)NC(=O)[C@@H](NC(=O)CNC(=O)[C@H](CCC(N)=O)NC(=O)C(C)(C)NC(=O)[C@@H](N)Cc1c[nH]cn1)[C@@H](C)O)[C@@H](C)O)C(=O)N[C@@H](CCC(=O)O)C(=O)N[C@@H](CCC(=O)O)C(=O)N[C@@H](CCC(N)=O)C(=O)N[C@@H](CCCNC(=N)N)C(=O)N[C@@H](CCC(N)=O)C(=O)NC(C)(C)C(=O)N[C@@H](CCC(=O)O)C(=O)N[C@@H](Cc1ccccc1)C(=O)N[C@H](C(=O)N[C@@H](CCC(=O)O)C(=O)N[C@@H](Cc1c[nH]c2ccccc12)C(=O)N[C@@H](CC(C)C)C(=O)N[C@@H](CCCCN)C(=O)N[C@@H](C)C(=O)NCC(=O)NCC(=O)N[C@@H](Cc1c[nH]cn1)C(=O)N1CCC[C@H]1C(=O)N[C@@H](CO)C(=O)NC(C)(C)C(=O)N[C@@H](CCCCN)C(=O)N1CCC[C@H]1C(=O)N1CCC[C@H]1C(=O)N1CCC[C@H]1C(=O)N[C@@H](CCCCN)C(N)=O)[C@@H](C)CC)C(=O)O)CC(=O)O [SEQ ID NO: 22, H-Aib-Q-G-T-F-T-S-D-L-S-K-L-K[gGlu-AEEA-gAAA-Palm]-E-E-Q-R-Q-Aib-E-F-I-E-W-L-K-A-G-G-H-P-S-Aib-K-P-P-P-K-NH2] (H-H[Aib]QGTFTSDLSKLK([γGlu-AEEA-Adipoyl(4R-palmitoylamino)])EEQRQ[Aib]EFIEWLKAGGHPS[Aib]KPPPK-NH2) | >45 h
